Holding throughout (type): cell-based
For experiment [1], the system named is GluN1/2AB receptors. The experiment can be described thus: Whole-cell patch-clamp, HEK293T cells expressing recombinant GluN1/2AB. To be noted: 100 μM CNS4 applied 4 s before and with 100 μM glutamate + 100 μM glycine; agonist alone −546 ± 32.34 pA; n = 8(4), p = .023. The method, then: Whole‐cell patch‐clamp electrophysiology studies were carried out in HEK‐293T cells expressing recombinant NMDA receptors that lack native functional NMDA receptors.[29], [30], [31] An equal quantity of (1 μg) cDNA for GluN1a, GluN2 subunits were co‐transfected 24‐48 h before patch‐clamp electrophysiology assay. […] Cells were carefully washed before performing experiments and were used for the electrophysiology experiments after 24 to 48 h incubation at 37°C with 5%CO2. The whole‐cell patch‐clamp electrophysiology assay was performed using semi‐automated patch‐clamp equipment, Port‐a‐Patch (Nanion Technologies GmbH). Following are the constituents of various solutions used for patch‐clamp electrophysiology: internal solution ([mM] NaCl 10, EGTA 20, CsF 110, HEPES 10), Mg‐free external (recording) solution ([mM] NaCl 140, KCl 4, CaCl2 2, HEPES 10, D‐GlucoseMonohydrate 5), and Mg‐free seal enhancer solution ([mM] NaCl 80, KCl 3, CaCl2 35, HEPES 10). Nanion NPC chips with […] resistance were used for the HEK‐293T cell recordings.
FIGURE 1 CNS4 sensitizes ambient concentration of agonists in GluN2 subunit dependent manner. […] Statistical significance was calculated from the Wilcoxon matched‐pairs signed rank test, except the comparison between 1/2A & 1/2AB CNS4 with no agonist data, which was done by unpaired t‐test. […]
For orientation: The patch-clamp technique gives a direct electrical read-out from membranes.

For experiment [2], the target named is T1, E781A_1/2A mutant receptor (UniProt P35439+Q12879, E781A).
T1 construct: expressed in transfected cells; host or cells: Xenopus oocytes (cRNA injection)
The experiment can be described thus: TEVC glutamate dose-response, GluN1 E781A mutant with wild type GluN2A. Also noted: Glutamate efficacy: unit not given here. From the text: NMDA receptor constructs: cDNA encoding the NMDA receptor1a subunit (GluN1a) was obtained from Dr. Nakanishi (Kyoto, Japan). cDNA encoding the GluN2B (pci_sepGluN2B), originally developed in the Malinow lab,[33] was purchased from Addgene (cat# 23998), Cambridge, MA. cDNA encoding the GluN2C and GluN2D were purchased from GenScript, New Jersey, USA. Mutated GluN1, 2A and 2B cDNA constructs capable of assembling as GluN1/2A/2B triheteromeric (1/2AB) receptors[34] were obtained from Dr. Paoletti (Laboratoire de Neurobiologie, CNRS). These constructs have been previously tested for 1/2AB receptor activity of GluN1/2A receptor‐selective potentiators.[35] […] Plasmids were linearized with NotI (GluN1a and all five GluN1 mutants) or Avrll (GluN2B), or BstB1 (GluN2C and GluN2D) and transcribed in vitro with T7 (GluN1a, GluN1/2A, GluN2B, GluN2C & GluN2D), and SP6 (GluN1 mutants) RNA polymerase using the mMessage mMachine transcription kits (Invitrogen by Thermo Fisher Scientific).
Electrophysiological responses were measured using a standard two‐microelectrode voltage‐clamp workstation (Warner Instruments model OC‐725C) designed to provide a fast clamp of large cells. The recording buffer contained 116 mM NaCl, 2 mM KCl, 0.3 mM BaCl2, and 5 mM HEPES, pH 7.4. Response magnitude was determined in Xenopus oocytes expressing different NMDA receptor subunits (GluN1/2A, 1/2B, 1/2C, 1/2D, and 1/2A/2B) by the steady plateau response elicited by bath application of different agonist concentrations. […] All data points were obtained from the steady state currents unless stated otherwise. Dose–response relationships were fit to an appropriate curve‐fitting equation using GraphPad Prism‐7. Non‐linear regression was used to calculate EC50, IC50, and fold change or percentage maximal response. Curves were fit using the following equations as performed in the previous studies, [37]: Y=100/1+10^LogEC50−XorY=Bottom+Top−Bottom/1+10^LogEC50−X . Statistical significance was determined at the overall alpha level 0.05, using appropriate statistical methods as described in all figure captions. […]

In experiment [3] the target is T2, GluN1/2B NMDA receptors (Rattus norvegicus, UniProt P35439+Q00960).
T2 construct: SEP (super-ecliptic pHluorin; printed only as 'sep' in the plasmid name); host or cells: Xenopus oocytes (cRNA injection)
As to the kind of experiment: TEVC agonist dose-response, Xenopus oocytes expressing 1/2B. To be noted: with 30 μM CNS4. From the text:
NMDA receptor constructs: cDNA encoding the NMDA receptor1a subunit (GluN1a) was obtained from Dr. Nakanishi (Kyoto, Japan). cDNA encoding the GluN2B (pci_sepGluN2B), originally developed in the Malinow lab,[33] was purchased from Addgene (cat# 23998), Cambridge, MA. cDNA encoding the GluN2C and GluN2D were purchased from GenScript, New Jersey, USA. Mutated GluN1, 2A and 2B cDNA constructs capable of assembling as GluN1/2A/2B triheteromeric (1/2AB) receptors[34] were obtained from Dr. Paoletti (Laboratoire de Neurobiologie, CNRS). These constructs have been previously tested for 1/2AB receptor activity of GluN1/2A receptor‐selective potentiators.[35] […]
Electrophysiological responses were measured using a standard two‐microelectrode voltage‐clamp workstation (Warner Instruments model OC‐725C) designed to provide a fast clamp of large cells. […] Response magnitude was determined in Xenopus oocytes expressing different NMDA receptor subunits (GluN1/2A, 1/2B, 1/2C, 1/2D, and 1/2A/2B) by the steady plateau response elicited by bath application of different agonist concentrations. […] Statistical significance was determined at the overall alpha level 0.05, using appropriate statistical methods as described in all figure captions. […]

SMILES strings stand for the structures.

T1 sequence (Q12879 23-1464, other chains not shown): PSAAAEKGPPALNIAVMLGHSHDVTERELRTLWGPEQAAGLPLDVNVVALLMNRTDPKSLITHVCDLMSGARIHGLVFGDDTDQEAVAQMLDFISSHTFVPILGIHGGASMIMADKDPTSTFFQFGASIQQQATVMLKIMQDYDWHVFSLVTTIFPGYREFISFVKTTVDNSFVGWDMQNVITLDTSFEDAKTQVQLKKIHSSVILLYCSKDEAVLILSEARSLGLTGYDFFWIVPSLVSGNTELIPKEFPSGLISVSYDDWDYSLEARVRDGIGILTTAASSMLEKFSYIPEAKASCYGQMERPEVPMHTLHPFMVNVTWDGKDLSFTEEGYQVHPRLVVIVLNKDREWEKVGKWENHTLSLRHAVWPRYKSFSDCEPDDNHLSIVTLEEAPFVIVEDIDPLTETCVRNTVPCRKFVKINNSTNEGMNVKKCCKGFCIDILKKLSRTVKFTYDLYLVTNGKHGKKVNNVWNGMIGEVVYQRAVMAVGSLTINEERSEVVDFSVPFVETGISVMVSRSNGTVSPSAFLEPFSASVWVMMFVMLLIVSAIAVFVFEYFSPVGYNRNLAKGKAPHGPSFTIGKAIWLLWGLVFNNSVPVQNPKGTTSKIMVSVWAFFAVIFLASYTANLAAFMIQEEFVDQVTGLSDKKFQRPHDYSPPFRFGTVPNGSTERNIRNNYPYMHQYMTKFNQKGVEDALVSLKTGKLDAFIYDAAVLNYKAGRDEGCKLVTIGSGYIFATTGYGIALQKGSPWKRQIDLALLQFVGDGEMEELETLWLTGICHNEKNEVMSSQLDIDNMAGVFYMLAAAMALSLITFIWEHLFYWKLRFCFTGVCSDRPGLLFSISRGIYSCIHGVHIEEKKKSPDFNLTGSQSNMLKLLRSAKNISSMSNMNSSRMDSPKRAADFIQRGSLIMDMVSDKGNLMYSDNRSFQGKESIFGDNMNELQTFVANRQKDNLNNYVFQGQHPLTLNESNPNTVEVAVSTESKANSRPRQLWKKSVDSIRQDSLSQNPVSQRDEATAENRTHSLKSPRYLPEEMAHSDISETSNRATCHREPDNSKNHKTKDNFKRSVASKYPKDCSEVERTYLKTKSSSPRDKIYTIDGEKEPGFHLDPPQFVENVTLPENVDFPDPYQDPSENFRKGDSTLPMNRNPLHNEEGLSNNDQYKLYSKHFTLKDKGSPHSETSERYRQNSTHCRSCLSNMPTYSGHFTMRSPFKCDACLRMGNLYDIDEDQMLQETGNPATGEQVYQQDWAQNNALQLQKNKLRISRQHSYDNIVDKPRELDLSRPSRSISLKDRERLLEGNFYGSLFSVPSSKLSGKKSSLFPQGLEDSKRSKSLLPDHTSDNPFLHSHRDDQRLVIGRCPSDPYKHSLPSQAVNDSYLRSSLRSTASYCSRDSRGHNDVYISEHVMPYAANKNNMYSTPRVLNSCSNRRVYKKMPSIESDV
T2 sequence (Q00960 27-1482, other chains not shown): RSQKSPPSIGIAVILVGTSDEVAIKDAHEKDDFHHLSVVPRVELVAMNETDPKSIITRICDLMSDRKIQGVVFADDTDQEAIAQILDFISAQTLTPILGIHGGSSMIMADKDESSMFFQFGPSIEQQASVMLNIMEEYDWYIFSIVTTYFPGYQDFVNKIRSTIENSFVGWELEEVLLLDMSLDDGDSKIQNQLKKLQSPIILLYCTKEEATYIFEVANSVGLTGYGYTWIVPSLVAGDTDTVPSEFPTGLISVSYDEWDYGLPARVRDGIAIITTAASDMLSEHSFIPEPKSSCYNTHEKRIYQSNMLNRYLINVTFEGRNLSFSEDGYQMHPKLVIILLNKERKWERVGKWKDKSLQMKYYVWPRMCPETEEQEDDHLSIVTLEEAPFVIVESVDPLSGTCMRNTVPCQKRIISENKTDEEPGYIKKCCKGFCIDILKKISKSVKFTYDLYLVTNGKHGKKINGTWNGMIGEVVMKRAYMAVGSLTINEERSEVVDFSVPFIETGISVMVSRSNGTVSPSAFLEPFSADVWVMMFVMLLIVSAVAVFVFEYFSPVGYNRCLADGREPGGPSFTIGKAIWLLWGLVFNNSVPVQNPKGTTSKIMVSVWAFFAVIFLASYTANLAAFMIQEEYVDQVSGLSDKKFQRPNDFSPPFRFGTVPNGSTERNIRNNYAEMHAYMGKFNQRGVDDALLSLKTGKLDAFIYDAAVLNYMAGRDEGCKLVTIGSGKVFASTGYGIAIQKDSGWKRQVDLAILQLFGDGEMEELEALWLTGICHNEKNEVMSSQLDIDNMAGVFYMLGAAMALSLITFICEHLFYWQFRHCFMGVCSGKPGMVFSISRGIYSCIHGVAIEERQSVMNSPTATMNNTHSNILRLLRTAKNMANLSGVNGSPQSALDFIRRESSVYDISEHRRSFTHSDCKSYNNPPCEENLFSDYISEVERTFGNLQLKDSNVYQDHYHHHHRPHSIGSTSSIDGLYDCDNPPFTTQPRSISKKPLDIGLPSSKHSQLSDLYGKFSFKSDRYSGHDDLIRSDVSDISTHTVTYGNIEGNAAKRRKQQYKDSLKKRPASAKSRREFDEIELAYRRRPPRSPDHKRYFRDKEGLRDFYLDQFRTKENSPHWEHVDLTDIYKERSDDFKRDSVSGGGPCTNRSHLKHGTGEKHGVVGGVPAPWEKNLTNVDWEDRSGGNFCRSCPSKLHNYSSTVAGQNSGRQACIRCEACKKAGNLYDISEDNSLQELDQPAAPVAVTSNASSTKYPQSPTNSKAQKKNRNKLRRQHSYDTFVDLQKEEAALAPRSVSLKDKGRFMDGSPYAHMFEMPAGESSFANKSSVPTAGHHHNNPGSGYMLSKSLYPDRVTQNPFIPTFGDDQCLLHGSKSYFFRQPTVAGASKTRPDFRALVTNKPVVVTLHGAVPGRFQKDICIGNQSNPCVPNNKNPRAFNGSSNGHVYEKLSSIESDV

For `O=C(NC(=S)N1CCCCC1c1cccnc1)c1ccc(F)cc1` (stereo not drawn) [CNS4], in experiment [1], the Peak current amplitude result was “–380.7 ± 36.61 pA”. In experiment [2] (absence of glycine, presence of CNS4, 100 μM glutamate), the “Glutamate efficacy, E781A mutant compared to wild type 1/2A” value was ~ 34 fold. In experiment [2] (absence of glycine, presence of CNS4, n = 6 (3), p = .001 vs wild type), the “100 μM glutamate induced relative current amplitude (glutamate efficacy)” value came out at 1.39 ± 0.29 fold. In experiment [2] (in the presence of 30 μM glycine and 30 μM CNS4, n = 5 (4), p = .11 vs wild type), the Glutamate efficacy is recorded as 118.5 ± 40.87. Further, the “Glycine efficacy: relative fold change in current at highest glycine concentration” value in experiment [3] (100 μM glutamate constant, relative to 1 μM glycine, p = .0303) is reported as 0.88 ± 0.07 fold. In addition, the “Glutamate efficacy: relative fold change in current at highest glutamate concentration” value in experiment [3] (100 μM glycine constant, relative to 1 μM glutamate, p = .5104) is listed as 4.27 ± 0.82 fold.

The values are drawn from paper PMC10245146, “CNS4 causes subtype‐specific changes in agonist efficacy and reversal potential of permeant cations in NMDA receptors” (Pharmacology Research & Perspectives, 2023).
